The values that follow come from patent publication US10280184B2, “Heterocyclic kinase inhibitors” (AbbVie Inc., priority 2014, dated 2019).

In general, IC50 refers to the concentration at which inhibition is half-maximal.

Bounds are passed on as bounds.

BTK, sequence (Q06187 393-659): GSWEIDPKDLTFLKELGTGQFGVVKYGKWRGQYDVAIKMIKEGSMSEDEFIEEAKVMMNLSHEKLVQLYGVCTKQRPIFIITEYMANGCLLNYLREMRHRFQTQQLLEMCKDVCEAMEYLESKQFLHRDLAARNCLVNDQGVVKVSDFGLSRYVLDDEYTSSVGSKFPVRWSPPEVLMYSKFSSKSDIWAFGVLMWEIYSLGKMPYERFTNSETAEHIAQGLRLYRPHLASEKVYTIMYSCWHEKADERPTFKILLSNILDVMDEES
CSF-1R, sequence (P07333 538-910): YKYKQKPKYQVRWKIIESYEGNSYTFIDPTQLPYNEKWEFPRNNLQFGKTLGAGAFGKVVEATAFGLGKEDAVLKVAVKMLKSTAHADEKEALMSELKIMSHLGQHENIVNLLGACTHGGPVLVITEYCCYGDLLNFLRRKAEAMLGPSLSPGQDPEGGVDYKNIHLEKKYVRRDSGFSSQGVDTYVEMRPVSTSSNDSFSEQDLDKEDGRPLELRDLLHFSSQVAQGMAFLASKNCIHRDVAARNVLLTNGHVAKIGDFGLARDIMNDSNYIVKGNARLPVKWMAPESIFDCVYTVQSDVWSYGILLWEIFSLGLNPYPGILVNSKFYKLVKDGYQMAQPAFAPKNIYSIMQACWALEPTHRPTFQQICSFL

The target in the first test is BTK (Homo sapiens (Human), UniProt Q06187). Put plainly: In vitro BTK kinase activity measured by trFRET. The class given is biochemical. The settings on record: recombinant human catalytic domain (aa 393-659), 0.01 mM ATP; read-out: Btk enzyme IC50. As to the method:
In Vitro BTK Kinase Activity Measured by Time-Resolved Fluorescence Resonance Energy Transfer (trFRET)
(§1) The in-house BTK corresponds to recombinant human catalytic domain (aa 393-659), which was expressed in SF9 cells with an N-terminal his tag and purified by immobilized metal affinity chromatography. BTK was mixed with peptide substrate (biotin-TYR1, Sequence: Biotin-(Ahx)-GAEEEIYAAFFA-COOH, 0.4 μM final) at varying inhibitor concentrations in reaction buffer: 50 mM MOPSO pH 6.5, 10 mM MgCl2, 2 mM MnCl2, 2.5 mM DTT, 0.01% BSA, 0.1 mM Na3VO4 and 0.01 mM ATP. After about 60 min incubation at rt, the reaction was quenched by addition of EDTA (final concentration: 100 mM) and developed by addition of detection reagents (final approximate concentrations: 30 mM HEPES pH 7.0, 0.06% BSA, 0.006% Tween-20, 0.24 M KF, 80 ng/mL PT66K (europium labeled anti-phosphotyrosine antibody cat #61T66KLB Cisbio, Bedford, Mass.) and 0.6 μg/mL SAXL (Phycolink streptavidin-allophycocyanin acceptor, cat #PJ25S, Prozyme, San Leandro, Calif.). The developed reaction was incubated in the dark for about 60 min at rt, then read via a time-resolved fluorescence detector (Rubystar, BMG) using a 337 nm laser for excitation and monitoring emission wavelength at 665 nm. Within the linear range of the assay, the observed signal at 665 nm was directly related to phosphorylated product and can be used to calculate the IC50 values.
For `C=CC(=O)N1CCC(c2cc(Nc3ccc4c(c3)NC(=O)CCC4)c3ncnn3c2)C1` (stereo not shown) [F.1.15, 8-((6-(1-acryloylpyrrolidin-3-yl)-[1,2,4]triazolo[1,5-a]pyridin-8-yl)amino)-4,5-dihydro-1H-benzo[b]azepin-2(3H)-one], the IC50 fell in the range of 100 to 1000 nM.

On to `C=CC(=O)N1CCC(c2cn3ncnc3c(NC)n2)C1` (stereo not shown) [F.1.16, 1-(3-(8-(methylamino)-[1,2,4]triazolo[1,5-a]pyrazin-6-yl)pyrrolidin-1-yl)prop-2-en-1-one], for which the half-maximal inhibitory concentration (IC50) lay within 1000 to 50000 nM. As to `C=CC(=O)N1CCC(c2cn3ncnc3c(Nc3ccc(N4CCOCC4)nc3)n2)C1` (stereo not shown) [F.1.19, 1-(3-(8-((6-morpholinopyridin-3-yl)amino)-[1,2,4]triazolo[1,5-a]pyrazin-6-yl)pyrrolidin-1-yl)prop-2-en-1-one], the 50% inhibitory concentration (IC50) fell in the range of 100 to 1000 nM.

Take `C=CC(=O)N1CCCC(c2cc(Nc3ccn(C)n3)c3ncnn3c2)C1` (stereo not shown) [F.1.21, 1-(3-(8-((1-methyl-1H-pyrazol-3-yl)amino)-[1,2,4]triazolo[1,5-a]pyridin-6-yl)piperidin-1-yl)prop-2-en-1-one]: the concentration for half-maximal inhibition (IC50) lay within 100 to 1000 nM. On the same count and under the same terms, the result for `C=CC(=O)N1CCC(c2cn3ncnc3c(Nc3cnn(C)c3)n2)C1` (stereo not shown) [F.1.22, 1-(3-(8-((1-methyl-1H-pyrazol-4-yl)amino)-[1,2,4]triazolo[1,5-a]pyrazin-6-yl)pyrrolidin-1-yl)prop-2-en-1-one] reads less than 100 nM.

As for `C=CC(=O)N1CCC(c2cn3ncnc3c(Nc3ccn(C)n3)n2)C1` (stereo not shown) [F.1.23, 1-(3-(8-((1-methyl-1H-pyrazol-3-yl)amino)-[1,2,4]triazolo[1,5-a]pyrazin-6-yl)pyrrolidin-1-yl)prop-2-en-1-one], the half-maximal inhibitory concentration (IC50) fell in the range of 1000 to 50000 nM. `C=CC(=O)N1CC[C@H](c2cc(Nc3ccn(C)n3)c3ncnn3c2)C1` [F.1.38, (R)-1-(3-(8-((1-methyl-1H-pyrazol-3-yl)amino)-[1,2,4]triazolo[1,5-a]pyridin-6-yl)pyrrolidin-1-yl)prop-2-en-1-one]: the IC50 is less than 100 nM. Same read-out and setting: the result for `C=CC(=O)N1CC[C@@H](c2cc(Nc3cc4n(n3)CCN(C)C4)c3ncnn3c2)C1` [F.1.39] reads less than 100 nM; that for `C=CC(=O)N1CCC[C@@H](c2cc(Nc3cc4n(n3)CCN(C)C4)c3ncnn3c2)C1` [F.1.40], less than 100 nM. With `C=CC(=O)N1CCC(c2cc(Nc3cc4n(n3)CCOC4)c3nccn3n2)C1` (stereo not shown) [F.1.41, 1-(3-(8-((6,7-dihydro-4H-pyrazolo[5,1-c][1,4]oxazin-2-yl)amino)imidazo[1,2-b]pyridazin-6-yl)pyrrolidin-1-yl)prop-2-en-1-one], the IC50 is less than 100 nM. On the same count and under the same terms, the result for `C=CC(=O)N1CC(c2cc(Nc3cc4n(n3)CCOC4)c3ncnn3c2)C1` [F.1.42] reads less than 100 nM; that for `C=CC(=O)N1CC[C@@H](c2cn3ncnc3c(Nc3ccc(OC)c(OC)c3)n2)C1` [F.1.112], 1000 to 50000 nM; that for `Cn1ccc(Nc2cc(C3CCN(C#N)C3)cn3ncnc23)n1` (stereo not shown) [I.1, 3-(8-((1-methyl-1H-pyrazol-3-yl)amino)-[1,2,4]triazolo[1,5-a]pyridin-6-yl)pyrrolidine-1-carbonitrile], 100 to 1000 nM. Same read-out and setting: under `Cn1ccc(Nc2cc(C3CCCN(C#N)C3)cn3ncnc23)n1` (stereo not shown) [I.1.1, 3-(8-((1-methyl-1H-pyrazol-3-yl)amino)-[1,2,4]triazolo[1,5-a]pyridin-6-yl)piperidine-1-carbonitrile] stands 100 to 1000 nM; under `Cn1cc(Nc2nc(C3CCN(C#N)C3)cn3ncnc23)cn1` (stereo not shown) [I.1.2], 100 to 1000 nM. Consider `N#CN1CCCC(c2cc(Nc3cc4n(n3)CCOC4)c3ncnn3c2)C1` (stereo not shown) [I.1.3, 3-(8-((6,7-dihydro-4H-pyrazolo[5,1-c][1,4]oxazin-2-yl)amino)-[1,2,4]triazolo[1,5-a]pyridin-6-yl)piperidine-1-carbonitrile], for which the IC50 was in the range of 100 to 1000 nM. In the case of `Cn1ccc(Nc2cc([C@H]3CCC[C@H](NC#N)C3)cn3ncnc23)n1` [I.1.4, N—((1S,3S)-3-(8-((1-methyl-1H-pyrazol-3-yl)amino)-[1,2,4]triazolo[1,5-a]pyridin-6-yl)cyclohexyl)cyanamide], the IC50 is 100 to 1000 nM.

The target in a further test is CSF-1R (Homo sapiens (Human), UniProt P07333). Put plainly: In vitro CSF-1R kinase activity measured by trFRET. The class given is biochemical. As to conditions: recombinant human catalytic domain (aa 538-910), 0.1 mM ATP; read-out: CSF-1R enzyme IC50. Here is the method:
In Vitro CSF-1R Kinase Activity Measured by Time-Resolved Fluorescence Resonance Energy Transfer (trFRET)
as §1, with “The CSF-1R construct” for “The in-house BTK”, “(aa 538-910),” for “(aa 393-659),”, “was purchased from Invitrogen (cat #PV4092). CSF-1R” for “was expressed in SF9 cells with an N-terminal his tag and purified by immobilized metal affinity chromatography. BTK”, “Biotin-(Ahx)-GAEEEIYAAFFA-COOH, 4” for “Biotin-(Ahx)-GAEEEIYAAFFA-COOH, 0.4”, “mM DTI,” for “mM DTT,”, “and 0.1” for “and 0.01”
With `Cn1cc(Nc2nc([C@@H]3CCC[C@@H](O)C3)cn3ncnc23)cn1` (single isomer, unassigned) [Example 10], the half-inhibitory concentration (IC50) was less than 100 nM. The same measure, in the same setting: under `CC(C)(O)CCn1cc(Nc2nc(C3CCCCC3)cn3ncnc23)cn1` [A.1.1, 4-(4-((6-cyclohexyl-[1,2,4]triazolo[1,5-a]pyrazin-8-yl)amino)-1H-pyrazol-1-yl)-2-methylbutan-2-ol] stands less than 100 nM; under `c1nc2c(Nc3cnn(C4CCOCC4)c3)nc(C3CCCCC3)cn2n1` [A.1.2, 6-cyclohexyl-N-(1-(tetrahydro-2H-pyran-4-yl)-1H-pyrazol-4-yl)-[1,2,4]triazolo[1,5-a]pyrazin-8-amine], less than 100 nM; under `c1nc2c(Nc3cnn(C4COC4)c3)nc(C3CCCCC3)cn2n1` [A.1.4, 6-cyclohexyl-N-(1-(oxetan-3-yl)-1H-pyrazol-4-yl)-[1,2,4]triazolo[1,5-a]pyrazin-8-amine], less than 100 nM. Consider `c1nc2c(Nc3cn[nH]c3)nc(C3CCCCC3)cn2n1` [A.1.7, 6-cyclohexyl-N-(1H-pyrazol-4-yl)-[1,2,4]triazolo[1,5-a]pyrazin-8-amine], for which the half-inhibitory concentration (IC50) is less than 100 nM. Still for that read-out and setting: under `CCOC(=O)[C@H]1CC[C@@H](n2cc(Nc3nc(C4CCCCC4)cn4ncnc34)cn2)CC1` [A.1.8, cis-ethyl 4-(4-((6-cyclohexyl-[1,2,4]triazolo[1,5-a]pyrazin-8-yl)amino)-1H-pyrazol-1-yl)cyclohexanecarboxylate] stands less than 100 nM; under `c1nc2c(Nc3cnn(C4CCNCC4)c3)nc(C3CCCCC3)cn2n1` [D.1.1, 6-cyclohexyl-N-(1-(piperidin-4-yl)-1H-pyrazol-4-yl)-[1,2,4]triazolo[1,5-a]pyrazin-8-amine], less than 100 nM; under `c1nc2c(Nc3cnn(C4CCNCC4)c3)nc(C3CCCC3)cn2n1` [D.1.2, 6-cyclopentyl-N-(1-(piperidin-4-yl)-1H-pyrazol-4-yl)-[1,2,4]triazolo[1,5-a]pyrazin-8-amine], less than 100 nM. `CC(C)n1cc(Nc2nc(C3CCCCC3)cn3ncnc23)cn1` [E.1.1, 6-cyclohexyl-N-(1-isopropyl-1H-pyrazol-4-yl)-[1,2,4]triazolo[1,5-a]pyrazin-8-amine]: the IC50 is less than 100 nM. On the same count and under the same terms, under `Cn1cc(Nc2nc(C3CCC(C)(C)CC3)cn3ncnc23)cn1` [E.1.2, 6-(4,4-dimethylcyclohexyl)-N-(1-methyl-1H-pyrazol-4-yl)-[1,2,4]triazolo[1,5-a]pyrazin-8-amine] stands less than 100 nM; under `Cn1cc(Nc2nc([C@H]3CC[C@H](C)CC3)cn3ncnc23)cn1` [E.1.3], less than 100 nM. On to `Cn1cc(Nc2nc([C@H]3CC[C@@H](C)CC3)cn3ncnc23)cn1` [E.1.4], for which the IC50 is less than 100 nM.

`Cn1cc(Nc2nc([C@H]3CC[C@H](C(F)(F)F)CC3)cn3ncnc23)cn1` [E.1.5, N-(1-methyl-1H-pyrazol-4-yl)-6-((1R,4R)-4-(trifluoromethyl)cyclohexyl)-[1,2,4]triazolo[1,5-a]pyrazin-8-amine]: the concentration for half-maximal inhibition (IC50) is less than 100 nM. Regarding `c1nc2c(Nc3cc4n(n3)CCOC4)cc(C3CCCCC3)cn2n1` [E.1.6, N-(6-cyclohexyl-[1,2,4]triazolo[1,5-a]pyridin-8-yl)-6,7-dihydro-4H-pyrazolo[5,1-c][1,4]oxazin-2-amine], the concentration for half-maximal inhibition (IC50) was less than 100 nM.
